This is an account of results in ChEMBL document CHEMBL3137667, “[Drug-induced liver injury; fourteenth updated edition of the bibliographic database of liver injuries and related drugs]” (Gastroenterol Clin Biol, 2004).

The conditions of data set [1]: human, serum.
Data set [2] can be described thus: Highest frequency of acute liver toxicity observed during clinical trials, expressed as a percentage. [column '% AIGUE' in source]. The following applies: human.
The conditions of data set [3]: human.
The conditions of data set [4]: human. This is another data set of the same source.
The conditions of data set [5]: human, serum, 4383 h.
For data set [6] the following is noted: human. This is another data set of the same source.
The conditions of data set [7]: human. The source holds these as a separate data set.
The conditions of data set [8]: human. This is another data set of the same source.
The conditions of data set [9]: human, serum. This is another data set of the same source.
A short description of data set [10]: Highest frequency of moderate liver toxicity observed during clinical trials, expressed as a percentage. [column '% BIOL' in source]. The following applies: human.
The conditions of data set [11]: human. This is another data set of the same source.
For data set [12] the following is noted: human. The source holds these as a separate data set.
For data set [13] the following is noted: human. The source holds these as a separate data set.
The conditions of data set [14]: human. This is another data set of the same source.
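For Hepatotoxicity (association with vascular disease) in this document: count of indexed literature references reporting vascular liver injury in humans, e.g. peliosis hepatitis, hepatic veno-occlusive disease or Budd-Chiari syndrome.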
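For Hepatotoxicity (benign tumour) in this document: value is a count of indexed literature references citing a benign tumour confirmed by histopathology.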
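For Hepatotoxicity (choleostasis) in this document: human cholestatic liver injury, shown by histopathology or by peak ALT or AST elevation over alkaline phosphatase ratio below 2, value counts indexed literature reports.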
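For Hepatotoxicity (chronic liver disease) in this document: chronic liver injury confirmed by histopathology or persistently raised serum aminotransferase activity beyond 6 months, value given as the count of indexed literature references.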
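For Hepatotoxicity (cirrhosis) in this document: value is a count of indexed literature references reporting cirrhosis confirmed by histopathology.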
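For Hepatotoxicity (cytolytic) in this document: human cytolytic liver injury, shown by histopathology or by a ratio above 5 of peak ALT or AST elevation to alkaline phosphatase elevation, value counts indexed references.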
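For Hepatotoxicity (granulomatous hepatitis) in this document: value is a count of indexed literature references reporting granulomatous liver disease confirmed by histopathology.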
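For Hepatotoxicity (malignant tumour) in this document: malignant tumour confirmed by histopathology, value gives the count of indexed literature references reporting it.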
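For Hepatotoxicity (severe hepatitis) in this document: human clinical data: severe hepatitis, meaning potentially life-threatening liver failure or clinically observed cases, the value counts how many indexed literature references report it.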
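For Hepatotoxicity (steatosis) in this document: steatosis confirmed by histopathology, value is the count of indexed references.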

In the case of `Oc1ccc(Cl)cc1Cc1cc(Cl)ccc1O` [DICHLOROPHEN], the “Hepatotoxicity (acute)” value in data set [1] was 2; in data set [2] it was 0%. Besides, the “Hepatotoxicity (choleostasis)” value in data set [3] amounted to 1. Besides, the “Hepatotoxicity (steatosis)” value in data set [4] is on record as 0. Also, the “Hepatotoxicity (chronic liver disease)” value in [5] came out at 0. Also, the “Hepatotoxicity (severe hepatitis)” value in data set [6] came to 0. The “Hepatotoxicity (benign tumour)” value in data set [7] came to 0. Also, the “Hepatotoxicity (cytolytic)” value in [8] was found to be 2. For the same compound, the figures for the “Hepatotoxicity (moderate)” value in [9] and in data set [10] were 0 and 0%, respectively. For the same compound, in data set [11], the “Hepatotoxicity (granulomatous hepatitis)” value turned out to be 0. In [12], the “Hepatotoxicity (cirrhosis)” value is 0. In addition, the “Hepatotoxicity (malignant tumour)” value in data set [13] stood at 0. Also, in data set [14], the “Hepatotoxicity (association with vascular disease)” value is listed as 0.
With `C[C@@H](O)[C@H]1C(=O)N2C(C(=O)O)=C(S[C@@H]3CN[C@H](C(=O)Nc4cccc(C(=O)O)c4)C3)[C@H](C)[C@H]12`, the “Hepatotoxicity (acute)” value in [1] is 0; in [2], 0%. In [3], the “Hepatotoxicity (choleostasis)” value was determined as 0. Besides, the “Hepatotoxicity (steatosis)” value in [4] was 0. In addition, the “Hepatotoxicity (chronic liver disease)” value in data set [5] is reported as 0. The “Hepatotoxicity (severe hepatitis)” value in [6] is recorded as 0. For the same compound, the “Hepatotoxicity (benign tumour)” value in data set [7] amounted to 0. Moreover, the “Hepatotoxicity (cytolytic)” value in [8] came to 0. Besides, the “Hepatotoxicity (moderate)” value in data set [9] is given as 4; in data set [10], 0%. The “Hepatotoxicity (granulomatous hepatitis)” value in data set [11] is 0. Also, in data set [12], the “Hepatotoxicity (cirrhosis)” value is on record as 0. Besides, in data set [13], the “Hepatotoxicity (malignant tumour)” value came to 0. Also, in data set [14], the “Hepatotoxicity (association with vascular disease)” value was determined as 0.
On to `CC(CCC(=O)O)C1CC[C@H]2[C@@H]3CC[C@@H]4C[C@H](O)CC[C@]4(C)[C@H]3CC[C@]12C` (stereo partly specified), for which the “Hepatotoxicity (acute)” value is 0 in data set [1] and 0% in data set [2]. Moreover, in data set [3], the “Hepatotoxicity (choleostasis)” value was 0. Further, the “Hepatotoxicity (steatosis)” value in data set [4] is given as 0. Further, the “Hepatotoxicity (chronic liver disease)” value in [5] was 0. Moreover, the “Hepatotoxicity (severe hepatitis)” value in data set [6] worked out at 0. Besides, the “Hepatotoxicity (benign tumour)” value in [7] is reported as 0. Moreover, the “Hepatotoxicity (cytolytic)” value in data set [8] worked out at 0. Further, the “Hepatotoxicity (moderate)” value amounted to 1 in data set [9] and 11.1% in data set [10]. The “Hepatotoxicity (granulomatous hepatitis)” value in data set [11] was 0. In data set [12], the “Hepatotoxicity (cirrhosis)” value turned out to be 0. The “Hepatotoxicity (malignant tumour)” value in [13] is given as 0. Also, in data set [14], the “Hepatotoxicity (association with vascular disease)” value is listed as 0.
Consider `CN(C)CCc1c[nH]c2ccc(C[C@H]3COC(=O)N3)cc12` [ZOLMITRIPTAN], for which the “Hepatotoxicity (acute)” value in data set [1] is on record as 0; in [2], 0%. Besides, the “Hepatotoxicity (choleostasis)” value in data set [3] came to 0. For the same compound, the “Hepatotoxicity (steatosis)” value in data set [4] turned out to be 0. Besides, the “Hepatotoxicity (chronic liver disease)” value in data set [5] amounted to 0. In addition, the “Hepatotoxicity (severe hepatitis)” value in data set [6] came out at 0. For the same compound, the “Hepatotoxicity (benign tumour)” value in data set [7] is recorded as 0. The “Hepatotoxicity (cytolytic)” value in [8] came out at 0. In addition, the “Hepatotoxicity (moderate)” value in data set [9] worked out at 1; in data set [10] it was 0%. Also, the “Hepatotoxicity (granulomatous hepatitis)” value in data set [11] came out at 0. In addition, in data set [12], the “Hepatotoxicity (cirrhosis)” value was determined as 0. Also, the “Hepatotoxicity (malignant tumour)” value in data set [13] is on record as 0. Further, the “Hepatotoxicity (association with vascular disease)” value in data set [14] is given as 0.
As to `NS(=O)(=O)OCCCCCCCOS(N)(=O)=O`, the results for the “Hepatotoxicity (acute)” value in data set [1] and in [2] were 0 and 0%, respectively. Further, in [3], the “Hepatotoxicity (choleostasis)” value was 0. Besides, the “Hepatotoxicity (steatosis)” value in data set [4] is 0. In data set [5], the “Hepatotoxicity (chronic liver disease)” value turned out to be 0. For the same compound, in data set [6], the “Hepatotoxicity (severe hepatitis)” value is 0. Further, the “Hepatotoxicity (benign tumour)” value in data set [7] is given as 0. The “Hepatotoxicity (cytolytic)” value in data set [8] was 0. Further, the “Hepatotoxicity (moderate)” value in [9] is 2; in data set [10] it was 25%. In addition, the “Hepatotoxicity (granulomatous hepatitis)” value in data set [11] amounted to 0. Besides, the “Hepatotoxicity (cirrhosis)” value in [12] amounted to 0. For the same compound, the “Hepatotoxicity (malignant tumour)” value in [13] was determined as 0. Besides, in data set [14], the “Hepatotoxicity (association with vascular disease)” value is 0.
On to `CC(=O)Nc1c(I)c(NC(C)=O)c(I)c(C(=O)O)c1I` [DIATRIZOIC ACID], for which the “Hepatotoxicity (acute)” value in [1] came to 0; in [2], 0%. Also, the “Hepatotoxicity (choleostasis)” value in [3] was found to be 0. In data set [4], the “Hepatotoxicity (steatosis)” value amounted to 0. Further, in data set [5], the “Hepatotoxicity (chronic liver disease)” value turned out to be 0. For the same compound, in [6], the “Hepatotoxicity (severe hepatitis)” value was 0. For the same compound, in [7], the “Hepatotoxicity (benign tumour)” value was found to be 0. For the same compound, the “Hepatotoxicity (cytolytic)” value in data set [8] turned out to be 0. For the same compound, the “Hepatotoxicity (moderate)” value in [9] came out at 1; in data set [10] it was 0%. Besides, the “Hepatotoxicity (granulomatous hepatitis)” value in data set [11] came out at 0. Also, in data set [12], the “Hepatotoxicity (cirrhosis)” value was found to be 0. Moreover, the “Hepatotoxicity (malignant tumour)” value in [13] is given as 0. In addition, the “Hepatotoxicity (association with vascular disease)” value in [14] came out at 0.
For the compound `CO/N=C(\C(=O)N[C@@H]1C(=O)N2C(C(=O)O)=CCS[C@H]12)c1csc(N)n1` [CEFTIZOXIME], the “Hepatotoxicity (acute)” value is given as 4 in data set [1] and 1.4% in data set [2]. Moreover, the “Hepatotoxicity (choleostasis)” value in data set [3] is 1. The “Hepatotoxicity (steatosis)” value in [4] amounted to 0. For the same compound, the “Hepatotoxicity (chronic liver disease)” value in [5] was found to be 0. Further, in data set [6], the “Hepatotoxicity (severe hepatitis)” value came out at 0. Moreover, the “Hepatotoxicity (benign tumour)” value in data set [7] was found to be 0. Also, the “Hepatotoxicity (cytolytic)” value in data set [8] is reported as 1. The “Hepatotoxicity (moderate)” value is 32 in [9] and 35% in data set [10]. Further, in [11], the “Hepatotoxicity (granulomatous hepatitis)” value amounted to 0. Besides, the “Hepatotoxicity (cirrhosis)” value in data set [12] turned out to be 0. In addition, in [13], the “Hepatotoxicity (malignant tumour)” value stood at 0. Besides, the “Hepatotoxicity (association with vascular disease)” value in [14] was found to be 0.
With `CN(C)S(=O)(=O)c1ccc2c(c1)N(CCCN1CCC(CCO)CC1)c1ccccc1S2` [PIPOTIAZINE], the “Hepatotoxicity (acute)” value in data set [1] is recorded as 0; in [2] it was 0%. Further, the “Hepatotoxicity (choleostasis)” value in [3] is on record as 0. In addition, the “Hepatotoxicity (steatosis)” value in data set [4] is listed as 0. The “Hepatotoxicity (chronic liver disease)” value in data set [5] is recorded as 0. Further, the “Hepatotoxicity (severe hepatitis)” value in data set [6] amounted to 0. For the same compound, in data set [7], the “Hepatotoxicity (benign tumour)” value is recorded as 0. The “Hepatotoxicity (cytolytic)” value in data set [8] came to 0. Further, the “Hepatotoxicity (moderate)” value in [9] is 1; in [10] it was 1.9%. In [11], the “Hepatotoxicity (granulomatous hepatitis)” value is listed as 0. The “Hepatotoxicity (cirrhosis)” value in [12] was found to be 0. Moreover, the “Hepatotoxicity (malignant tumour)” value in [13] amounted to 0. In data set [14], the “Hepatotoxicity (association with vascular disease)” value is listed as 0.
`CO/N=C(\C(=O)N[C@@H]1C(=O)N2C(C(=O)[O-])=C(C[n+]3ccn4ncccc43)CS[C@H]12)c1nsc(N)n1` [CEFOZOPRAN]: the “Hepatotoxicity (acute)” value in data set [1] is reported as 0; in data set [2], 0%. In data set [3], the “Hepatotoxicity (choleostasis)” value turned out to be 0. Besides, the “Hepatotoxicity (steatosis)” value in data set [4] came out at 0. The “Hepatotoxicity (chronic liver disease)” value in [5] worked out at 0. Also, the “Hepatotoxicity (severe hepatitis)” value in data set [6] turned out to be 0. Also, the “Hepatotoxicity (benign tumour)” value in data set [7] is 0. In data set [8], the “Hepatotoxicity (cytolytic)” value stood at 0. For the same compound, the “Hepatotoxicity (moderate)” value in data set [9] is 68; in [10], 50%. Besides, in [11], the “Hepatotoxicity (granulomatous hepatitis)” value came out at 0. Further, the “Hepatotoxicity (cirrhosis)” value in [12] was 0. For the same compound, the “Hepatotoxicity (malignant tumour)” value in [13] came to 0. For the same compound, the “Hepatotoxicity (association with vascular disease)” value in data set [14] came out at 0.
